From paper PMC8732328 (Nature microbiology, 2021)

test system: all eight Enterococcus or Streptococcus strains; assay: MIC against eight Enterococcus or Streptococcus strains; assay type: cell-based, Enterococcus and Streptococcus spp.

| Molecule | activity against all eight Enterococcus or Streptococcus strains |
| --- | --- |
| nisin | active |
| CN[C@H](CC(C)C)C(=O)N[C@H]1C(=O)N[C@@H](CC(N)=O)C(=O)N[C@H]2C(=O)N[C@H]3C(=O)N[C@H](C(=O)N[C@H](C(=O)O)c4cc(O)cc(O)c4-c4cc3ccc4O)[C@H](O)c3ccc(c(Cl)c3)Oc3cc2cc(c3O[C@@H]2O[C@H](CO)[C@@H](O)[C@H](O)[C@H]2O[C@H]2C[C@](C)(N)[C@H](O)[C@H](C)O2)Oc2ccc(cc2Cl)[C@H]1O [Van, vancomycin] | active |
| ramoplanin | active |
| lysobactin | active |
